Legend:
[1] = test system: iOPCs treated with siUBE3A; experiment: EdU nuclear incorporation in iOPCs treated with siUBE3A; assay type: cell-based, human; settings: siUBE3A plus AC-186 at 10 μM for 24 hours
Description: (§1) The siRNAs targeting UBE3A (Thermo Fisher, #4390815 and #4390816), estrogen receptors (Thermo Scientific #145909 for ESRβ, #145539 for ESRα, and #4390824 for GPER), and negative control (Thermo Scientific, #AM4615) were obtained commercially. The 10-20 nM final concentration was used with Lipofectamine RNAiMAX transfection reagent (Thermo Scientific #13778075) and incubated for at least 48 hours before the treatments of therapeutic compounds or other reagents.
The EdU labeling kit from ThermoFisher Scientific (#C10637) was used to trace cell proliferation by incubating iOPCs with 2 μM EdU for three hours before fixation. Following EdU incorporation, cells were fixed in 4% paraformaldehyde, blocked with normal serum, and stained with primary antibodies, Rabbit anti-Ki67 and Mouse anti-UBE3A. These steps were conducted according to the manual of the labeling kit and also detailed immunofluorescence staining protocols described below, to ensure specific detection of the proliferation marker Ki67 and the ubiquitin-protein ligase UBE3A in the cells for subsequent imaging analysis.
For immunofluorescence with fixed cells in vitro, cultured cells were fixed in 4% PFA for 15 min at 37° C. followed by 0.25% TritonX-100 in PBS for 10 min at RT. Cells were blocked with 2% normal goat/donkey serum in PBS for 1 hour at RT. […]

[2] = test system: ERK/MAPK signaling pathway; experiment: ERK/MAPK and S6 activation in iOPCs by immunoblotting (phosphorylated to total ratio); assay type: cell-based, human
Text: FIGS. 20A-20E depict the identification of ESR-β signaling pathway in regulating OPC proliferation impaired by UBE3A depletion. FIG. 20A: Immunofluorescence to track estrogen receptor (ESR) expression in OPCs, by staining of all 3 ESRs, ESR-α, ESR-β and GPER (top panels), in iOPCs co-labeled with UBE3A (middle panels) and DAPI; scale bar, 100 μm. […] FIG. 20B: Immunoblotting to assess OPC expression of individual ESRs, by analyzing protein levels of ESR-α, ESR-β and GPER in iOPCs treated with siNC or siUBE3A, normalized to GAPDH and expressed relative to the siNC condition (set as 1.0). After treatment with siUBE3A, expression of ESR-β was decreased, while expression of GPER was increased. n=5-6 experiments. FIG. 20C: The activation of the ERK/MAPK signaling pathway in OPCs, particularly downstream of ESR-β, was analyzed in iOPCs subjected to 6 knockdown conditions: siNC, siUBE3A, siESRα, siESRβ, and combinations of siUBE3A with siESRα or siESRβ. These were followed by treatment with vehicle control or the ESR-β agonist AC-186 (10 μM, 30 min). The activation of ERK and its substrate S6 was determined by the ratio of phosphorylated to total ERK and S6 levels, adjusted relative to the vehicle control group (standard value of 1.0). ERK phosphorylation and S6 phosphorylation was decreased in cells treated with siESRβ, or siESRβ and siUBE3A combined. n=3 experiments. FIG. 20D: Immunoblotting to evaluate the role of ERK/MAPK activation in the restoration of OPC proliferation following ESR-β activation, with the addition of ERK phosphorylation inhibitors U0126 or PD98059 to UBE3A-depleted OPCs, with or without AC-186 co-treatment (10 μM. 24 hours). The quantification of Ki67 expression and UBE3A levels, being normalized to β-tubulin (TUBB1) and compared to the siNC condition (value of 1.0). n=5 experiments. FIG. 20E: A schematic depicting the regulatory role of ESR-β signaling pathway in OPC proliferation, identified by combining genetic knockdown techniques and pharmacological interventions. Activation of ESR-β selectively triggers the ERK/MAPK pathway, as shown by ERK phosphorylation and the ERK substrate S6 activation, essential for cell proliferation. […] As applicable: statistical significance was determined using One-way ANOVA followed by post-hoc comparisons, with selected comparisons presented. Significance levels marked as *p<0.05. ** p<0.005. *** p<0.001. **** p<0.0001, ns not significant, across relevant comparisons.
as §1
Cells were collected by fast spin down in centrifuge tubes before lysis in RIPA buffer (ThermoFisher, #89901) supplemented with proteinase inhibitor cocktail (Sigma-Aldrich, #5892791001) on ice. Lysates were then spun down at 15000 rpm for 10 mins, the supernatant was collected and mixed with 4× Laemmle sample buffer (Bio-Rad, #1610747) and cooked 10 mins before SDS-PAGE and transferred with Bio-Rad fast transfer system, the membranes were blocked for one hour in 1× Tris Buffered Saline (TBS) with 1% Casein buffer (Bio-Rad, #1610782) and incubated with primary antibodies overnight at 4 degrees. After 3 times washing in TBST washing buffers (ThermoFisher, #28352), the membranes were incubated with HRP conjugated antibodies and developed with Clarity Max™ Western ECL Substrate (Bio-Rad, #1705062) before being filmed in the iBright imaging system.

[3] = UBE3A-depleted iOPCs, AC-186 10 μM, 30 min

Oc1ccc(C2(c3ccccc3F)CCC(F)(F)CC2)cc1 [AC-186]
EdU staining [1]: increased EdU staining | UBE3A levels [2, 3]: remained unchanged | activity of ERK [2, 3]: restored | activity of S6 [2, 3]: restored | effects on ERK/MAPK activation when ESR-α was knocked down ([2]; siESRα): did not reverse the effects of AC-186 | effects on ERK/MAPK activation when ESR-β was knocked down ([2]; siESRβ): negated

From patent US20250032425A1, “FIRST IN CLASS USE OF ESTROGEN RECEPTOR BETA AGONISTS IN TREATING ANGELMAN SYNDROME AND RELEVANT AUTISM SPECTRUM DISORDERS” (BROWN UNIVERSITY, priority 2023, published 2025)
